Test results as given in US8143241B2, “DNA damage repair inhibitors for treatment of cancer” (Kudos Pharmaceuticals Limited, priority 2003, dated 2012).

Tests used:
HeLa cells = assay: Cell viability, HeLa cells exposed to PARP inhibitor and caffeine; conditions: 1 mM Caffeine plus KU0058684
From the text: Error bars represent standard errors of the mean.
Caffiene was used to determine whether loss of ATM and ATR dependent DNA signalling pathways would induce sensitivity to PARP inhibition.

PARP-2 = PARP-2 (Homo sapiens, UniProt Q9UGN5); assay: Inhibition of poly(ADP-ribose) polymerase activity of PARP-2; type: biochemical
vault PARP = vault PARP (Homo sapiens, UniProt Q9UKK3); assay: Selectivity: vault PARP inhibition; type: biochemical; conditions: at concentrations up to 1 μM
PARP-3 = PARP-3 (Homo sapiens, UniProt Q9Y6F1); assay: Selectivity: PARP-3 inhibition; type: biochemical; conditions: at concentrations up to 1 μM
Brca1 deficient ES cells = assay: Clonogenic assay, continuous exposure, Brca1 deficient ES cells; type: cell-based, mouse
Procedure: (§1) For measurement of sensitivity to chemical inhibitors, cell cultures e.g. ES cells or mouse embryonic fibroblasts, in exponential growth were trypsinised and seeded at various densities in 6-well plates onto confluent monolayer of Mitomycin C (MMC) inactivated mouse embryonic fibroblasts and, where appropriate, treated with inhibitors after 18 h. For continuous exposure, cells were re-fed every 4 days with fresh medium and inhibitor. For timed exposures, inhibitor was added for the specified period then cells were washed and re-fed with fresh medium. After 10-14 days, cells were washed with PBS, fixed in methanol and stained with crystal violet. Colonies containing greater than approximately 50 cells were counted. Experiments were performed at least three times in triplicate.

Brca2 deficient ES cells = assay: Clonogenic assay, continuous exposure, Brca2 deficient ES cells; type: cell-based, mouse
Procedure: as §1

[1] = tested on: RAD51 siRNA transfected HeLa cells; assay: Clonogenic survival, HeLa cells with RAD51 RNAi silencing; type: cell-based, human; conditions: continuous treatment
From the text: Clonogenic survival curves of transfected HeLa cells under constant exposure to a range of concentrations of PARP inhibitor (KU0058684) for 12-14 days. […] SF50 for pSUPER-CFP-CONTROL transfected cells is >1×10^−5 M and is 1×10^−6 M for pSUPER-CFP-17/19/23 transfected cells.
HeLa cells were transfected using FuGene (Roche, USA) according to the manufacturers instructions. For clonogenic survival assays, cells were co-transfected in 6 well plates with pSUPER and a vector expressing blasticidin resistance (pEF-Bsd, Invitrogen, USA) at a ratio of 10:1 (pSUPER: pEF-Bsd). Twenty-four hours after transfection, cells were plated into replica plates and this was followed by treatment with PARP inhibitors and blasticidin 48 hours post transfection.

[2] = tested on: HeLa cells with BRCA1, BRCA2 and RAD51 silencing; assay: Cell viability, HeLa cells with BRCA1, BRCA2 or RAD51 silencing; type: cell-based, human; conditions: five days
Procedure: (§2) For cell viability assays, HeLa cells were co-transfected with pSUPER and pEFBsd in 96 well plates using FuGene (Roche, USA) according to the manufacturers instructions. Twenty-four hours after transfection, cells were plated into replica plates and this was followed by treatment with PARP inhibitors and blasticidin 48 hours post transfection. Media containing PARP inhibitors and blasticidin was replenished five days post-transfection and cell viability was measured at seven days using the 96 well plate CellTitre-Glo™ Luminescent Cell Viability Assay kit (Promega, USA, according to the manufacturers instructions).

[3] = tested on: HeLa cells transfected with DSS1 and RPA siRNA plasmids; assay: Cell viability, HeLa cells transfected with DSS1 and RPA siRNA plasmids; type: cell-based, human
Procedure: as §2

[4] = tested on: HeLa cells transfected with ATM, ATR, CHK1 or CHK2 silencing RNAi; assay: Cell viability, HeLa cells transfected with ATM, ATR, CHK1 or CHK2 silencing RNAi; type: cell-based, human; conditions: five days
Procedure: as §2

[5] = tested on: Fancd2−/−, Fanca−/−, Fancc−/− and Fanca−/−c−/− fibroblasts; assay: Clonogenic survival, Fanconi anaemia mouse fibroblasts; type: cell-based; conditions: continuous exposure 12-14 days
Procedure: Mouse fibroblasts from wild-type, Fancd2^−/−, Fanca^−/−, Fancc^−/− and Fanca^−/−c^−/− animals were obtained from the Fanconi Anaemia Cell Repository, Oregon Health and Science University. These cells were maintained in DMEM, supplemented with FCS (10% v/v), glutamine and antibiotics. RAD54 and RAD52 Embryonic Stem (ES) cells were grown in DMEM, supplemented with FCS (15% v/v), glutamine, antibiotics, non-essential amino acids, 2-mercaptoethanol and Leukemia inhibitory Factor. HeLa cells (CCL-2) were obtained from ATCC (USA) and were maintained in DMEM, supplemented with FCS (10% v/v), glutamine and antibiotics.
as §1

Rad52 deficient ES cells = assay: Clonogenic survival, Rad52 deficient ES cells; type: cell-based
Procedure: as §1

tankyrase = conditions: at concentrations up to 1 μM
FT/pEBS7 ATM−/− cells = assay: SRB cell growth assay, ATM deficient vs complemented cells; type: cell-based; conditions: FT/pEBS7 ATM−/− vs FT/pEBS7-Y25 ATM+/+
Procedure: (§3) Cell growth was assessed using the sulforhodamine B (SRB) assay (Skehan, P. et al (1990) J. Natl. Cancer Inst. 82, 1107-1112) 2,000 cells were seeded into each well of a flat-bottomed 96-well microtiter plate in a volume of […] and incubated for 6 hours at 37° C. Cells were either replaced with media alone or with media containing PARP inhibitor or ATM inhibitor or both at a range of concentrations shown. Cells were then allowed to grow for a further 96 hours after which the media was removed and the cells fixed with […] of ice cold 10% (w/v) trichloroacetic acid. The plates were incubated at 4° C. for 20 minutes and then washed four times with water. Each well of cells was then stained with […] of 0.4% (w/v) SRB in 1% acetic acid for 20 minutes before washing four times with 1% acetic acid. Plates were then dried for 2 hours at room temperature. The dye from the stained cells was solubilized by the addition of […] of 10 mM Tris Base into each well. Plates were gently shaken and left at room temperature for 30 minutes before measuring the optical density at 564 nm on a Microquant microtiter plate reader.

NBS1−/− fibroblast cells = assay: SRB cell growth assay, NBS1 deficient fibroblasts vs MRC5; type: cell-based
Procedure: as §3

HT29 cells = assay: SRB cell growth assay, ATM/PARP inhibitor combination; type: cell-based; conditions: KU-0059436 plus KU-60019
Procedure: as §3

PARP-2, sequence (Q9UGN5 whole entry): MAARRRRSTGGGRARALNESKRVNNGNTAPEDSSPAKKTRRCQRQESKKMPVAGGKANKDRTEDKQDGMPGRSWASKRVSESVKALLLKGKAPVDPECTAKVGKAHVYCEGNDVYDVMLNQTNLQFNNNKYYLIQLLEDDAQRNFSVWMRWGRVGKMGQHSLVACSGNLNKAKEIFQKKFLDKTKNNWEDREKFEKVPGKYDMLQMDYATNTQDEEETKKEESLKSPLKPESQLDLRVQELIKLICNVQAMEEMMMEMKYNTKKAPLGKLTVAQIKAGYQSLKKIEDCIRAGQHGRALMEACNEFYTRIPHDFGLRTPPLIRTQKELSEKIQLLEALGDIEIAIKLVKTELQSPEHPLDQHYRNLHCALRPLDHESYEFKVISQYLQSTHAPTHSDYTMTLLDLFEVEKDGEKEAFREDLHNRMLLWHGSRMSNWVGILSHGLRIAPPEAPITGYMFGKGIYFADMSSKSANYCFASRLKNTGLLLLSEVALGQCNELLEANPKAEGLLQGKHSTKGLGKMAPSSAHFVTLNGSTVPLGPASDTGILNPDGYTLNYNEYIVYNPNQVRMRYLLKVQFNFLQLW
vault PARP, sequence (Q9UKK3 whole entry): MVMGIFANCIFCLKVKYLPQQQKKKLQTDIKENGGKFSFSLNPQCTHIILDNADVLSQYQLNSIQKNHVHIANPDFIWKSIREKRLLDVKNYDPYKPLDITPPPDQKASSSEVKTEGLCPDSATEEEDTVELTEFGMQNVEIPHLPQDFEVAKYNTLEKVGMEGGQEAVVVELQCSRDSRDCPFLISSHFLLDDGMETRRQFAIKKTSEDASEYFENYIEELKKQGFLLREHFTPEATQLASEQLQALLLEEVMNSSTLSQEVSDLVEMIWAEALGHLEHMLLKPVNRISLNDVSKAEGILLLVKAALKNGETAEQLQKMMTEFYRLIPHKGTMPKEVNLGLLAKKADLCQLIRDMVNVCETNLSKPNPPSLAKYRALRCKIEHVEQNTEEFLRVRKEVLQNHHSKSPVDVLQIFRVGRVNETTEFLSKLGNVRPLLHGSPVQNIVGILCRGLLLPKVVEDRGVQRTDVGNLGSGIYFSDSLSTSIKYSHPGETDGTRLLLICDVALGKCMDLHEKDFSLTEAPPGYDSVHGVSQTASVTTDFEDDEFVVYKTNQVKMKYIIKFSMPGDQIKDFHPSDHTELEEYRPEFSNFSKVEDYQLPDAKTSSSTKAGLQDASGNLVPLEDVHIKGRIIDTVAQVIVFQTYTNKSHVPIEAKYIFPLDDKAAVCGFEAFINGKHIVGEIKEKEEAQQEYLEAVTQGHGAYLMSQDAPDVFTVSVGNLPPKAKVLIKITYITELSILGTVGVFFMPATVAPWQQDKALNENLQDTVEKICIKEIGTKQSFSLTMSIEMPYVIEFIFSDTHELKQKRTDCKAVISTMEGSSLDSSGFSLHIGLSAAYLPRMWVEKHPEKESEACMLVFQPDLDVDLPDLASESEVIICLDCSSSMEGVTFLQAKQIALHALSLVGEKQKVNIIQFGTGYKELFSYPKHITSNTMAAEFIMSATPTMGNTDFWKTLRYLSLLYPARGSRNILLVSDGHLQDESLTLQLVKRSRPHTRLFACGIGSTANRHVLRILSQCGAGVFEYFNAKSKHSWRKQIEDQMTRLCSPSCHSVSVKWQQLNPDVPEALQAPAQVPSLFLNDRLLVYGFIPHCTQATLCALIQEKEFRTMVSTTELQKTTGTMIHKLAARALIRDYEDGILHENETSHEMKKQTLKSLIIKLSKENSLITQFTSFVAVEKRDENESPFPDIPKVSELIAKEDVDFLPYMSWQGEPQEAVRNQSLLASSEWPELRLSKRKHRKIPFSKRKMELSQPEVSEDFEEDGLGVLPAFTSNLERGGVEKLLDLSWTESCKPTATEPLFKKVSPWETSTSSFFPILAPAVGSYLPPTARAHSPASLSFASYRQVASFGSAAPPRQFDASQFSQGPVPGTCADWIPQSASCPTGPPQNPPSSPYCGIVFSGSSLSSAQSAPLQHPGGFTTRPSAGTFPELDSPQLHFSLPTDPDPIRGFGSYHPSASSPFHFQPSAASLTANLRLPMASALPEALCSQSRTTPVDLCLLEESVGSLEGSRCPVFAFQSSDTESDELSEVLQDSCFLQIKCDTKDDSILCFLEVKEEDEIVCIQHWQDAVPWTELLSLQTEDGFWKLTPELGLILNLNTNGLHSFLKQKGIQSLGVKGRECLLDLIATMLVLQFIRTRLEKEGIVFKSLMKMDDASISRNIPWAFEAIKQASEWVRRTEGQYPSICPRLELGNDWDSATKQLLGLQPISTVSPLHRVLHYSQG
PARP-3, sequence (Q9Y6F1 whole entry, species assumed): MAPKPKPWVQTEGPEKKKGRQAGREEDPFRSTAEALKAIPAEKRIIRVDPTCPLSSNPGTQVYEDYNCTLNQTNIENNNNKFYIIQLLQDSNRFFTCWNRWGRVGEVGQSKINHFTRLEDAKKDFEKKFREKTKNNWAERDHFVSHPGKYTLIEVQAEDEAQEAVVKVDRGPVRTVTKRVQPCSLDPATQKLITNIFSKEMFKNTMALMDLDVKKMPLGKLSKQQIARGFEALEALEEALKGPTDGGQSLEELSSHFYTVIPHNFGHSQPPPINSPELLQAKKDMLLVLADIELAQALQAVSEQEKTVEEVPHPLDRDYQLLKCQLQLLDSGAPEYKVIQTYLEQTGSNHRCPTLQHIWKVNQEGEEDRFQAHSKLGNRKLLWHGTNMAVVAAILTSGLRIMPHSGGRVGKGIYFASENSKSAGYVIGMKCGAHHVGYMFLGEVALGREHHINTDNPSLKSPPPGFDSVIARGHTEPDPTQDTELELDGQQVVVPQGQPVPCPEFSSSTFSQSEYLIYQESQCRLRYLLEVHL

With `Cn1c(=O)c2c(ncn2C)n(C)c1=O` [Caffeine, reference compound] the “sensitivity of HeLa cells to PARP inhibitor with caffeine” value (HeLa cells) was “increased sensitivity”.
With `O=C(c1cc(Cc2n[nH]c(=O)c3ccccc23)ccc1F)N1CCCNCC1` [KU0058948] the “inhibition of poly(ADP-ribose) polymerase activity of PARP-1 and PARP-2” value (PARP-2) was “potent and specific inhibitors”, the “inhibition of vault PARP” value (vault PARP) was “do not inhibit” and the “inhibition of PARP-3” value (PARP-3) was “do not inhibit”. The “sensitivity of Brca1 mutant cells relative to KU0058684” value (Brca1 deficient ES cells) was “even greater than that of KU0058684”, the “sensitivity of Brca1 deficient cells compared to otherwise isogenic cells” value (Brca1 deficient ES cells; clonogenic assay) was “extremely sensitive” and the “sensitivity of Brca2 mutant cells relative to KU0058684” value (Brca2 deficient ES cells) was “even greater than that of KU0058684”. For the same compound, the “sensitivity of Brca2 deficient cells compared to otherwise isogenic cells” value (Brca2 deficient ES cells; clonogenic assay) was “extremely sensitive”, the “clonogenic survival of RAD51 siRNA transfected cells compared to control transfected cells” value [1] was “significant reduction in the clonogenic survival” and the “sensitivity to PARP inhibition after BRCA1, BRCA2 and RAD51 silencing” value [2] was “profound sensitivity”. For the same compound, the “sensitivity of DSS1 and RPA siRNA transfected cells compared to control plasmid” value [3] was “enhanced sensitivity”, the “sensitivity of ATM, ATR, CHK1, CHK2 siRNA transfected HeLa cells compared to control plasmid” value [4] was “increased sensitivity” and the “sensitivity of FA gene deficient fibroblasts compared to wild-type cells” value [5] was “results in sensitivity”. For the same compound, the “sensitivity of Rad52 deficient ES cells compared to wild-type cells” value (Rad52 deficient ES cells) was “no more sensitive” and the inhibition of tankyrase (tankyrase) was “do not inhibit”.
`O=C(c1cc(Cc2n[nH]c(=O)c3ccccc23)ccc1F)N1CCN(C(=O)C2CC2)CC1` [KU0059436] was tested, and the “sensitivity of ATM deficient cells compared to wild-type cells” value (FT/pEBS7 ATM−/− cells) was “more sensitive”, the “sensitivity of NBS1 deficient cells compared to wild-type cells” value (NBS1−/− fibroblast cells) was “more sensitive” and the “sensitivity to PARP inhibition with ATM inhibitor combination” value (HT29 cells) was “Sensitivity to PARP inhibition was observed to increase with increasing concentrations of ATMI”.
With `C[C@@H]1CN(CC(=O)Nc2ccc3c(c2)Cc2cccc(-c4cc(=O)cc(N5CCOCC5)o4)c2S3)C[C@H](C)O1` [KU-60019, reference compound] the “sensitivity to PARP inhibition with ATM inhibitor combination” value (HT29 cells) was “Sensitivity to PARP inhibition was observed to increase with increasing concentrations of ATMI”.
